In PMC11544713, “The Application of Untargeted Metabolomic Approaches for the Search of Common Bioavailable Metabolites in Human Plasma Samples from Lippia citriodora and Olea europaea Extracts” (Journal of Agricultural and Food Chemistry, 2024):

Assay: Acute intervention: nutrikinetics of plasma metabolites after ingestion of O. europaea extract (untargeted HPLC-ESI-QTOF-MS)
Protocol: A total of 25 healthy individuals participated, with an average age of 27 ± 9 years and a mean body mass index (BMI) of 23 ± 3 kg/m^2. None of the participants were taking any medications or nutritional supplements nor did they have any chronic diseases or gastrointestinal issues. The sample size was established based on findings from previous bioavailability research.[14] All participants provided informed consent before participating in the study.
The intervention study was carried out at Miguel Hernández University. Following an overnight fast, the volunteers were categorized into the subsequent groups: a subgroup to evaluate the LC leaf extract (n = 8), another for the OE leaf extract (n = 8), and the placebo subgroup (n = 9). This was a double-blind study, in which sample collection and treatment were carried out uniformly across all three subgroups.
Water was provided ad libitum. Prior to the ingestion of the capsule, a nurse inserted a cannula into the ulnar vein of each volunteer’s nondominant arm, and blood samples were drawn into EDTA-coated tubes at baseline (t = 0). Blood samples were then collected at 0.5, 1, 2, 4, 6, 8, and 10 h after the consumption of the 500 mg capsule. Plasma was separated through centrifugation (10 min at 3000 rpm and 4 °C) and stored at −80 °C until further analysis.
Plasma samples were initially treated using a mixture of methanol and ethanol (50:50; v:v) to remove proteins, following previously reported protocols.[19] During the sample treatment, pooled quality controls (pooled-QC) were prepared by combining equal aliquots from each sample. These QC samples were processed by using the same protocols as the experimental biological samples.
A reversed-phase analytical C18 column (Agilent Zorbax Eclipse Plus, 1.8 μm, 4.6 × 150 mm^2) with a protective cartridge with the same packing was used. MS data were acquired in negative ionization mode, operating in full scan across a mass-to-charge ratio (m/z) range of 50–1700. The analytical method used was adapted from that described by Villegas-Aguilar et al.[19]
Metabolite nutrikinetics were studied using PKSolver, an add-in program for pharmacokinetic data analysis in Microsoft Excel. The time to reach the maximum concentration (observed Tmax) was calculated for each significant metabolite. As an untargeted metabolomic approach was used to detect the circulating metabolites, these were not quantified. Therefore, the maximum concentration (Cmax) and area under the curve (AUC) parameters were calculated in a relative way by using the deconvoluted chromatographic areas. […] Statistical differences were determined by unpaired t tests. All p values less than 0.05 were considered statistically significant.

[1] = 0.5 h after O. europaea extract
[2] = human plasma, 500 mg capsule of O. europaea (OE) extract, oral, mean ± SD

Molecule | mean chromatographic area in plasma, T0.5 [1] | mean chromatographic area in plasma, T1 (1 h after O. europaea extract) | mean chromatographic area in plasma, T2 (2 h after O. europaea extract) | mean chromatographic area in plasma, T4 (4 h after O. europaea extract) | mean chromatographic area in plasma, T6 (6 h after O. europaea extract) | mean chromatographic area in plasma, T8 (8 h after O. europaea extract) | mean chromatographic area in plasma, T10 (10 h after O. europaea extract) | Cmax: relative maximum plasma level [2] | observed Tmax: time required to reach Cmax [2] [h] | Cmax: relative maximum plasma level (human, in vivo, po, 500 mg) | observed Tmax: time required to reach Cmax (human, in vivo, po, 500 mg) [h] | mean chromatographic area in plasma, T0.5 (in vivo) | mean chromatographic area in plasma, T1 (in vivo) | mean chromatographic area in plasma, T2 (in vivo) | mean chromatographic area in plasma, T4 (in vivo) | mean chromatographic area in plasma, T6 (in vivo) | mean chromatographic area in plasma, T8 (in vivo) | mean chromatographic area in plasma, T10 (in vivo) | further results
COc1cc(C(=O)O)cc(OC)c1OC [eudesmic acid] | 34 | 120 | 28 | 0 | 0 | 0 | 0 | 120 ± 27 relative chromatographic area | 1 ± 0 | – | – | – | – | – | – | – | – | – | –
COc1cc(-c2oc3cc(O[C@@H]4O[C@@H](C)[C@H](O)[C@@H](O)[C@H]4O)cc(O)c3c(=O)c2O[C@@H]2O[C@H](CO)[C@@H](O)[C@H](O)[C@H]2O)ccc1O [isorhamnetin 3-O-glucoside-7-O-rhamnoside] | 34 | 130 | 14 | 0 | 0 | 0 | 0 | 133 ± 18 relative chromatographic area | 0.9 ± 0.2 | – | – | – | – | – | – | – | – | – | –
C/C=C1/[C@H](O[C@@H]2O[C@H](CO)[C@@H](O)[C@H](O)[C@H]2O)OC=C(C(=O)OC)[C@H]1CC(=O)OCCc1ccc(O)c(O)c1 [oleuropein] | – | – | – | – | – | – | – | – | – | – | – | – | – | – | – | – | – | – | detection in plasma samples (in vivo): not detected as being significant in plasma samples
C=Cc1ccc(O)c(OC)c1 [p-vinylguaiacol] | – | – | – | – | – | – | – | – | – | 184 ± 45 relative chromatographic area | 1 ± 0 | 90 | 184 | 83 | 0 | 0 | 0 | 0 | –
COc1cc(C(=O)O)ccc1OC1OC(C(=O)O)C(O)C(O)C1O (centres unmarked) [vanillic acid glucuronide] | 0 | 37 | 77 | 63 | 44 | 22 | 0 | 111 ± 48 relative chromatographic area | 4 ± 3 | – | – | – | – | – | – | – | – | – | –
COc1cc(C=O)ccc1O[C@@H]1O[C@H](C(=O)O)[C@@H](O)[C@H](O)[C@H]1O [vanillin glucuronide] | – | – | – | – | – | – | – | – | – | 180 ± 66 relative chromatographic area | 1 ± 0 | 60 | 180 | 121 | 40 | 11 | 0 | 0 | –
O=c1cc(-c2ccc(O)cc2)oc2c([C@@H]3O[C@H](CO)[C@@H](O)[C@H](O)[C@H]3O)c(O)c([C@@H]3O[C@H](CO)[C@@H](O)[C@H](O)[C@H]3O)c(O)c12 [vicenin-2] | – | – | – | – | – | – | – | – | – | 137 ± 59 relative chromatographic area | 1 ± 0 | 34 | 137 | 46 | 0 | 0 | 0 | 0 | –
desoxy elenolic acid | – | – | – | – | – | – | – | – | – | 124 ± 24 relative chromatographic area | 1.1 ± 0.4 | 56 | 123 | 35 | 0 | 0 | 0 | 0 | –
homovanillyl alcohol glucuronide [homovanillyl alcohol glucuronide isomer 1] | – | – | – | – | – | – | 0 | 504 ± 154 relative chromatographic area | 1.1 ± 0.3 | – | – | – | – | – | – | – | – | – | mean chromatographic area in plasma, T0.5 (0.5 h after O. europaea extract, listed as homovanillic alcohol glucuronide isomer 1): 274; mean chromatographic area in plasma, T1 (1 h after O. europaea extract, listed as homovanillic alcohol glucuronide isomer 1): 503; mean chromatographic area in plasma, T2 (2 h after O. europaea extract, listed as homovanillic alcohol glucuronide isomer 1): 372; mean chromatographic area in plasma, T4 (4 h after O. europaea extract, listed as homovanillic alcohol glucuronide isomer 1): 183; mean chromatographic area in plasma, T6 (6 h after O. europaea extract, listed as homovanillic alcohol glucuronide isomer 1): 66; mean chromatographic area in plasma, T8 (8 h after O. europaea extract, listed as homovanillic alcohol glucuronide isomer 1): 26
homovanillyl alcohol glucuronide [homovanillyl alcohol glucuronide isomer 2] | – | – | – | – | – | – | 0 | 735 ± 257 relative chromatographic area | 1.6 ± 0.5 | – | – | – | – | – | – | – | – | – | mean chromatographic area in plasma, T0.5 (0.5 h after O. europaea extract, listed as homovanillic alcohol glucuronide isomer 2): 242; mean chromatographic area in plasma, T1 (1 h after O. europaea extract, listed as homovanillic alcohol glucuronide isomer 2): 677; mean chromatographic area in plasma, T2 (2 h after O. europaea extract, listed as homovanillic alcohol glucuronide isomer 2): 704; mean chromatographic area in plasma, T4 (4 h after O. europaea extract, listed as homovanillic alcohol glucuronide isomer 2): 365; mean chromatographic area in plasma, T6 (6 h after O. europaea extract, listed as homovanillic alcohol glucuronide isomer 2): 165; mean chromatographic area in plasma, T8 (8 h after O. europaea extract, listed as homovanillic alcohol glucuronide isomer 2): 61
hydroxytyrosol glucuronide [hydroxytyrosol glucuronide isomer 1] | 724 | 955 | 463 | 158 | 61 | 28 | 0 | 1002 ± 411 relative chromatographic area | 0.9 ± 0.2 | – | – | – | – | – | – | – | – | – | –
hydroxytyrosol sulfate [hydroxytyrosol sulfate isomer 1] | 280 | 323 | 178 | 328 | 118 | 202 | 45 | 593 ± 382 relative chromatographic area | 3 ± 3 | – | – | – | – | – | – | – | – | – | –
kaempferol sulfate | – | – | – | – | – | – | – | – | – | 172 ± 102 relative chromatographic area | 1.1 ± 0.3 | 25 | 165 | 59 | 0 | 0 | 0 | 0 | –
oleuropein aglycone glucuronide [oleuropein aglycone glucuronide isomer 1] | – | – | – | – | – | – | – | – | – | 244 ± 128 relative chromatographic area | 0.8 ± 0.2 | 186 | 202 | 29 | 0 | 0 | 0 | 0 | –
oleuropein aglycone glucuronide [oleuropein aglycone glucuronide isomer 2] | – | – | – | – | – | – | – | – | – | – | 0.9 ± 0.2 | – | 482 | 197 | 24 | 0 | 0 | 0 | –
